Results as given in the supplement of paper PMC10307832.

What was measured:
Experiment in all cases: relative viability (nuclei count vs DMSO), 5 days (fraction); higher = more cells survive
[1] = compound: CCC1=CN=CN=C1N2CCN(CC2)CC3=NC4=C(N3)C=C(C=C4)C(F)(F)F + O=C(c1cc(Cc2n[nH]c(=O)c3ccccc23)ccc1F)N1CCN(C(=O)C2CC2)CC1 [Olaparib] (partner 8 µM)
In short: (§1)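 Nuclei were stained with Hoechst during a one-step fixation (final 0.05% Triton X-100, 1% formaldehyde, 1 ug/ml Hoechst) carried out 5 days after dosing, then counted on 4× images. The cells, lung cancer lines in 1536-well plates, had been dosed by pin tool the day after seeding with one drug alone or a fixed anchor-drug dose plus five library-drug doses (not always all listed) in √10 steps. Relative viability is the nuclei count in treated wells divided by that in vehicle wells, and each value is the median of duplicate plates.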

[2] = compound: CCC1=CN=CN=C1N2CCN(CC2)CC3=NC4=C(N3)C=C(C=C4)C(F)(F)F + Cc1nc(NC(=O)N2CCC[C@H]2C(N)=O)sc1-c1ccnc(C(C)(C)C(F)(F)F)c1 [Alpelisib] (partner 2 µM)
In short: as §1

[3] = compound: CCn1c(-c2nonc2N)nc2cnc(Oc3cccc(NC(=O)c4ccc(OCCN5CCOCC5)cc4)c3)cc21 + CS(=O)(=O)CCNCc1ccc(-c2ccc3ncnc(Nc4ccc(OCc5cccc(F)c5)c(Cl)c4)c3c2)o1 [Lapatinib] (partner 2 µM)
In short: as §1

[4] = compound: CCn1c(-c2nonc2N)nc2cnc(Oc3cccc(NC(=O)c4ccc(OCCN5CCOCC5)cc4)c3)cc21 + CC(=O)Nc1cccc(-n2c(=O)n(C3CC3)c(=O)c3c(Nc4ccc(I)cc4F)n(C)c(=O)c(C)c32)c1 [Trametinib] (partner 0.02 µM)
In short: as §1

Cell Line | relative viability ([1]; first compound 0.04 µM) | relative viability ([1]; first compound 0.1265 µM) | relative viability ([1]; first compound 0.4 µM) | relative viability ([1]; first compound 1.265 µM) | relative viability ([1]; first compound 4 µM) | relative viability ([2]; first compound 0.04 µM) | relative viability ([2]; first compound 0.1265 µM) | relative viability ([2]; first compound 0.4 µM) | relative viability ([2]; first compound 1.265 µM) | relative viability ([2]; first compound 4 µM) | relative viability ([3]; first compound 0.04 µM) | relative viability ([3]; first compound 0.1265 µM) | relative viability ([3]; first compound 0.4 µM) | relative viability ([3]; first compound 1.265 µM) | relative viability ([3]; first compound 4 µM) | relative viability ([4]; first compound 0.04 µM) | relative viability ([4]; first compound 0.1265 µM) | relative viability ([4]; first compound 1.265 µM) | relative viability ([4]; first compound 4 µM) | relative viability ([4]; first compound 0.4 µM)
HCC-78 | 0.893 | 0.669 | 0.79 | 0.588 | 0.78 | 0.188 | 0.348 | 0.333 | 0.4 | 0.279 | 0.905 | 0.906 | 0.461 | 0.816 | 0.756 | 0.796 | 0.469 | 0.847 | 1.06 | –
HCC-366 | 0.38 | 0.355 | 0.29 | 0.349 | 0.335 | 0.563 | 0.385 | 0.335 | – | 0.395 | 1.25 | 1.01 | 0.251 | 0.0431 | 0.0373 | 0.335 | 0.334 | 0.0755 | 0.0555 | 0.322
HCC-827 | 0.698 | 0.706 | 0.721 | 0.567 | 0.595 | 1 | 0.926 | 0.969 | 0.988 | 0.956 | 0.195 | 0.273 | 0.197 | 0.251 | 0.21 | 0.586 | 0.662 | 0.573 | 0.689 | 0.683
HOP-62 | 0.377 | 0.293 | 0.269 | 0.458 | 0.363 | 1.16 | 0.962 | 0.815 | 1.01 | 1.13 | 1.16 | 1.02 | 0.996 | 0.866 | 0.461 | 0.381 | 0.361 | 0.301 | 0.314 | 0.371
IA-LM | 0.649 | 0.838 | 0.812 | 0.703 | 0.765 | 0.805 | 0.752 | 0.668 | 0.766 | 0.748 | 1.14 | 0.915 | 1.11 | 0.913 | 0.909 | – | – | – | – | –
LC-2-ad | 0.733 | 0.644 | 0.661 | 0.653 | 0.636 | 0.715 | 0.834 | 0.824 | 0.915 | 0.779 | 0.992 | 0.968 | 0.578 | 0.435 | 0.412 | 0.991 | 0.952 | 0.712 | 0.623 | 0.983
LCLC-97TM1 | 0.425 | 0.418 | 0.335 | 0.329 | 0.278 | 0.239 | 0.266 | 0.246 | 0.314 | 0.192 | 1.78 | 1.54 | – | 1.74 | 1 | 0.257 | 0.192 | 0.197 | 0.19 | –
LCLC-103H | 0.798 | 0.733 | 0.743 | 0.718 | 0.707 | 0.901 | 1.05 | 0.952 | 0.932 | 1.15 | – | – | – | – | – | 0.651 | 0.737 | 0.638 | 0.639 | 0.655
LK-2 | 0.817 | 0.675 | 0.603 | 0.517 | 0.712 | 1.14 | 1.09 | 0.991 | 0.775 | 1.06 | 1.2 | 0.95 | 0.605 | 0.706 | 0.949 | 0.753 | 0.969 | 0.666 | 0.899 | 0.65
LOU-NH91 | 0.892 | 0.951 | 0.898 | 0.896 | 0.94 | 0.621 | 0.689 | 0.712 | 0.63 | 0.72 | 0.817 | 0.77 | 0.537 | 0.518 | 0.517 | 0.751 | 0.697 | 0.543 | 0.487 | 0.617
LU99A | 0.308 | 0.282 | 0.276 | 0.28 | 0.301 | 0.524 | 0.527 | 0.53 | 0.568 | 0.585 | 1.15 | 0.845 | 0.641 | 0.862 | 0.694 | 0.569 | 0.595 | 0.584 | 0.497 | 0.567
NCI-H441 | 0.459 | 0.543 | 0.543 | 0.458 | 0.529 | 0.662 | 0.629 | 0.762 | 0.753 | 0.612 | – | – | – | – | – | 0.466 | 0.43 | 0.38 | 0.477 | 0.289
NCI-H522 | 0.601 | 0.613 | 0.573 | 0.526 | 0.558 | – | – | – | – | – | – | – | – | – | – | 0.739 | 0.705 | 0.629 | 0.751 | 0.652
NCI-H1299 | 0.942 | 0.969 | 0.975 | 0.982 | 0.949 | 1.09 | 1.07 | 1.04 | 1.03 | 1.04 | 0.951 | 0.86 | 0.836 | 0.724 | 0.625 | – | – | – | – | –
NCI-H1563 | – | – | – | – | – | 0.887 | 0.92 | 1 | 0.986 | 0.954 | 1.01 | 0.822 | 0.804 | 0.782 | 0.673 | – | – | – | – | –
NCI-H1648 | 0.985 | – | – | 0.558 | 0.673 | – | – | – | – | – | – | – | – | – | – | 0.511 | 0.431 | 0.779 | 0.705 | 0.576
NCI-H1650 | 0.682 | 0.797 | 0.708 | 0.642 | 0.907 | – | – | – | – | – | 1.04 | 0.747 | 0.74 | 0.671 | 0.694 | 0.668 | 0.543 | 0.37 | 0.496 | 0.52
NCI-H1703 | 0.511 | 0.536 | 0.397 | 0.332 | 0.396 | 0.462 | 0.401 | 0.358 | 0.25 | 0.535 | 1.2 | 0.939 | 0.715 | 0.376 | 0.361 | – | – | – | – | –
NCI-H2342 | 0.51 | 0.402 | 0.384 | 0.275 | 0.34 | – | – | – | – | – | – | – | – | – | – | 0.803 | 0.85 | 0.621 | 0.801 | 0.989
SW 900 | 0.928 | 0.764 | 0.863 | – | 0.82 | – | – | – | – | – | – | – | – | – | – | 0.602 | 0.802 | 0.918 | 0.849 | 0.828
